For the test, the system named is BDF1 mice, P388 leukemia ip, median survival T/C. The experiment in a line: NCI In Vivo Anticancer Drug Screen. Data for tumor model P388 Leukemia (intraperitoneal) in B6D2F1 (BDF1) mice. As to conditions: endpoint: median survival time, higher = longer survival. The method, boiled down:
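T/C = treated-group survival ÷ vehicle-control survival; tumour transplanted into mice before dosing.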

The mark [1] stands for this setting: dose: 50.0 mg/kg/injection, schedule: Q01DX009 (ip), vehicle: water.
The mark [2] stands for this setting: dose: 100.0 mg/kg/injection, schedule: Q01DX009 (ip), vehicle: water.
The mark [3] stands for this setting: dose: 50.0 mg/kg/injection, schedule: Q01DX009 (ip), vehicle: saline with Tween-80.
[4] abbreviates: dose: 100.0 mg/kg/injection, schedule: Q01DX009 (ip), vehicle: saline with Tween-80.
Where [5] appears, read: dose: 200.0 mg/kg/injection, schedule: Q01DX009 (ip), vehicle: saline with Tween-80.
Setting [6] is: dose: 400.0 mg/kg/injection, schedule: Q04DX003 (ip), vehicle: saline.
[7] abbreviates: dose: 100.0 mg/kg/injection, schedule: Q01DX009 (ip), vehicle: Klucel (hydroxypropylcellulose) (HPC).
Where [8] appears, read: dose: 200.0 mg/kg/injection, schedule: Q01DX009 (ip), vehicle: Klucel (hydroxypropylcellulose) (HPC).
Setting [9] is: dose: 100.0 mg/kg/injection, schedule: Q04DX003 (ip), vehicle: Klucel (hydroxypropylcellulose) (HPC).
[10] abbreviates: dose: 200.0 mg/kg/injection, schedule: Q04DX003 (ip), vehicle: Klucel (hydroxypropylcellulose) (HPC).
[11] abbreviates: dose: 400.0 mg/kg/injection, schedule: Q01DX009 (ip), vehicle: Klucel (hydroxypropylcellulose) (HPC).
The mark [12] stands for this setting: dose: 400.0 mg/kg/injection, schedule: Q04DX003 (ip), vehicle: Klucel (hydroxypropylcellulose) (HPC).
Setting [13] is: dose: 100.0 mg/kg/injection, schedule: Q04DX003 (ip), vehicle: saline with Tween-80.
Where [14] appears, read: dose: 200.0 mg/kg/injection, schedule: Q04DX003 (ip), vehicle: saline with Tween-80.
Setting [15] is: dose: 400.0 mg/kg/injection, schedule: Q04DX003 (ip), vehicle: saline with Tween-80.
Where [16] appears, read: dose: 25.0 mg/kg/injection, schedule: Q01DX009 (ip), vehicle: saline.
Where [17] appears, read: dose: 100.0 mg/kg/injection, schedule: Q01DX009 (ip), vehicle: saline.
Setting [18] is: dose: 200.0 mg/kg/injection, schedule: Q01DX009 (ip), vehicle: saline.

Values joined by “and” are separate entries in the source; they are usually repeats but may differ in a detail not shown here. Equal entries are not always repeated. Inconclusive results and toxic doses are left out.

For `COc1ccc(CCO)cc1OC`, the T/C is 97 % of control under setting [1]; 100 % of control under setting [2]; 99 % of control (dose: 100.0 mg/kg/injection, schedule: Q04DX003 (ip), vehicle: water); 96 % of control (dose: 200.0 mg/kg/injection, schedule: Q01DX009 (ip), vehicle: water); 106 % of control (dose: 200.0 mg/kg/injection, schedule: Q04DX003 (ip), vehicle: water); 96 % of control (dose: 400.0 mg/kg/injection, schedule: Q01DX009 (ip), vehicle: water).

With `CC1=C2CC(C)(C)/C=C\C(=O)/C(C)=C\C3=CC(C)(O)CC3(O2)C1=O` (stereo unspecified), the T/C is 93 % of control (dose: 0.16 mg/kg/injection, schedule: Q01DX009 (ip), vehicle: saline + alcohol); 118 % of control (dose: 0.31 mg/kg/injection, schedule: Q01DX009 (ip), vehicle: saline + alcohol); 120 % of control (dose: 0.62 mg/kg/injection, schedule: Q01DX009 (ip), vehicle: saline + alcohol); 118 % of control (dose: 1.25 mg/kg/injection, schedule: Q01DX009 (ip), vehicle: saline + alcohol); 154 % of control (dose: 10.0 mg/kg/injection, schedule: Q01DX009 (ip), vehicle: saline + alcohol).

For `Fc1ccc(C2CN3C(=N2)C=Cc2ccccc23)cc1` (stereo unspecified), the T/C was 101 % of control under setting [3], 99 % of control under setting [4] and 117 % of control under setting [5].

`CC(=O)CC(C)=O.CC(=O)CC(C)=O.CC(C)c1ncc[nH]1.O=N[O-].[Co]`: the T/C reads like this: (dose: 100.0 mg/kg/injection, schedule: Q04DX002 (ip), vehicle: saline with Tween-80) 105 % of control; (dose: 200.0 mg/kg/injection, schedule: Q04DX002 (ip), vehicle: saline with Tween-80) 107 % of control.

Turning to `COc1ccc2nc(N)n(C(=O)c3ccccc3)c(=O)c2c1`, the T/C (dose: 100.0 mg/kg/injection, schedule: Q01DX001 (ip), vehicle: saline with Tween-80) is 101 % of control; the T/C (dose: 200.0 mg/kg/injection, schedule: Q01DX001 (ip), vehicle: saline with Tween-80) was 109 % of control; the T/C (dose: 400.0 mg/kg/injection, schedule: Q01DX001 (ip), vehicle: saline with Tween-80) was 109 % of control.

In the case of `CCN(CC)c1oc2ccc3ccccc3c2c(=O)c1Cl`, the T/C reads like this: under setting [3], 97 % of control; under setting [4], 94 % of control; under setting [5], 92 % of control.

Regarding `CC(=O)SCCNCCNC1CC2CCC1C2` (stereo unspecified), the T/C reads like this: (dose: 5.75 mg/kg/injection, schedule: Q01DX009 (ip), vehicle: saline) 104 % of control; (dose: 11.5 mg/kg/injection, schedule: Q01DX009 (ip), vehicle: saline) 104 % of control.

Turning to `CN(C)/C=N/n1cnc2c(ncn2C2OC(CO)C(O)C2O)c1=O` (stereo unspecified), the T/C (dose: 50.0 mg/kg/injection, schedule: Q04DX003 (ip), vehicle: saline) was 108 % of control; the T/C (dose: 100.0 mg/kg/injection, schedule: Q04DX003 (ip), vehicle: saline) was 108 % of control; the T/C (dose: 200.0 mg/kg/injection, schedule: Q04DX003 (ip), vehicle: saline) is 111 % of control; the T/C under setting [6] was 101 % of control.

For `O=C1N2CCOC2=NC1(c1ccccc1)c1ccccc1`, the T/C was 94 % of control (dose: 12.5 mg/kg/injection, schedule: Q01DX009 (ip), vehicle: water); 100 % of control (dose: 25.0 mg/kg/injection, schedule: Q01DX009 (ip), vehicle: water); 94 % of control under setting [1]; 94 % of control under setting [2].

As for `CN(C)c1ccc(C(=C2C=CC(=[N+](C)C)C=C2)c2ccccc2Cl)cc1`, the T/C (dose: 5.0 mg/kg/injection, schedule: Q01DX010 (ip), vehicle: saline) was 110 % of control.

Consider `Nc1nc(SCc2ccccn2)c2[nH]cnc2n1`, for which the T/C is 104 % of control (dose: 20.0 mg/kg/injection, schedule: Q04DX003 (ip), vehicle: Klucel (hydroxypropylcellulose) (HPC)); 104 % of control (dose: 30.0 mg/kg/injection, schedule: Q04DX003 (ip), vehicle: Klucel (hydroxypropylcellulose) (HPC)); 104 % of control (dose: 44.0 mg/kg/injection, schedule: Q04DX003 (ip), vehicle: Klucel (hydroxypropylcellulose) (HPC)); 107 % of control under setting [7]; 92 % of control under setting [8].

Turning to `O=C1c2ccccc2CCC1(Br)C(Br)c1ccccc1` (stereo unspecified), the T/C (dose: 100.0 mg/kg/injection, schedule: Q01DX001 (ip), vehicle: Klucel (hydroxypropylcellulose) (HPC)) was 100 % of control; the T/C under setting [7] is 100 % of control; the T/C under setting [9] was 113 % of control; the T/C (dose: 130.0 mg/kg/injection, schedule: Q01DX001 (ip), vehicle: Klucel (hydroxypropylcellulose) (HPC)) is 90 % of control; the T/C (dose: 133.0 mg/kg/injection, schedule: Q01DX001 (ip), vehicle: Klucel (hydroxypropylcellulose) (HPC)) was 100 % of control; the T/C (dose: 200.0 mg/kg/injection, schedule: Q01DX001 (ip), vehicle: Klucel (hydroxypropylcellulose) (HPC)) was 100 % of control and 109 % of control. Also, the T/C reads like this: under setting [8], 100 % of control; under setting [10], 113 % of control; (dose: 300.0 mg/kg/injection, schedule: Q01DX001 (ip), vehicle: Klucel (hydroxypropylcellulose) (HPC)) 95 % of control and 100 % of control; (dose: 400.0 mg/kg/injection, schedule: Q01DX001 (ip), vehicle: Klucel (hydroxypropylcellulose) (HPC)) 112 % of control; under setting [11], 100 % of control; under setting [12], 121 % of control.

For the molecule `COc1cccc(C(=O)O)c1OS(=O)(=O)c1ccccc1`, the T/C reads like this: under setting [7], 104 % of control; under setting [9], 110 % of control; under setting [8], 95 % of control; under setting [10], 90 % of control; under setting [11], 90 % of control; under setting [12], 105 % of control.

`CC1N/C(=C/c2ccccc2)C(=O)O1` (stereo unspecified): the T/C under setting [3] is 118 % of control and the T/C under setting [4] was 121 % of control.

As for `COc1cc(C2c3cc4c(cc3C(O)C3COC(=O)C23)OCO4)cc(O)c1OC` (stereo unspecified), the T/C was 120 % of control (dose: 2.0 mg/kg/injection, schedule: Q01DX009 (ip), vehicle: saline) and 105 % of control (dose: 4.0 mg/kg/injection, schedule: Q01DX009 (ip), vehicle: saline).

Turning to `O=C1c2ccccc2C(=O)N1c1c2ccccc2cc2ccccc12`, the T/C is, setting by setting: under setting [13], 100 % of control; under setting [14], 104 % of control; under setting [15], 100 % of control.

With `O=c1[nH]c(=O)n(CCc2cccs2)cc1F`, the T/C is, setting by setting: under setting [3], 106 % of control; under setting [4], 101 % of control; under setting [13], 94 % of control; under setting [5], 108 % of control; under setting [14], 108 % of control; (dose: 400.0 mg/kg/injection, schedule: Q01DX009 (ip), vehicle: saline with Tween-80) 90 % of control. The T/C under setting [15] is 92 % of control.

Take `COc1cc(-c2ccc(Nc3ccccc3C(=O)O)c(OC)c2)ccc1Nc1ccccc1C(=O)O`: the T/C reads like this: (dose: 50.0 mg/kg/injection, schedule: Q01DX010 (ip), vehicle: saline) 166 % of control; (dose: 100.0 mg/kg/injection, schedule: Q01DX010 (ip), vehicle: saline) 158 % of control.

Consider `C1CC[N-]CC1.C1CC[N-]CC1.O=C(O)C(=O)O.[Pt+2]`, for which the T/C under setting [16] is 120 % of control; the T/C (dose: 80.0 mg/kg/injection, schedule: Q01DX005 (ip), vehicle: Klucel (hydroxypropylcellulose) (HPC)) is 123 % of control; the T/C under setting [17] was 120 % of control; the T/C under setting [18] is 100 % of control; the T/C under setting [6] is 118 % of control.

As to `C[N+]1(C)C2CC(=O)CC1C1CC12` (stereo unspecified) (tested in a mixture with another compound), the T/C is, setting by setting: under setting [16], 99 % of control; (dose: 50.0 mg/kg/injection, schedule: Q01DX009 (ip), vehicle: saline) 106 % of control; under setting [17], 106 % of control; under setting [18], 106 % of control.

The values above are taken from PubChem BioAssay AID328 (DTP/NCI, 2004).
